Assay results taken from ChEMBL document CHEMBL3507680, “University of Dundee, Gates Library screen for HepG2 cell viability”.

assay: Human HepG2 cell viability assay in 384 well format; type: toxicity, cell-based; parameters: dose 125 nL, time 70.5 hour; cytotoxicity at 70.5 h: concentration not given beside the values; conditions: HepG2 cells, read-out: Inhibition

Row | SMILES | cytotoxicity at 70.5 h
1 | COc1cc(F)c(S(=O)(=O)N2CCN(C)Cc3ccccc32)cc1OC | -10.1%
2 | CC(=O)NCCC(=O)Nc1sccc1C(=O)C(C)(C)C | 2.44%
3 | CS(=O)(=O)NCCC(=O)N1CCN(S(=O)(=O)c2ccc(Br)cc2)CC1 | 6.55%
4 | Cc1ccnc(NC(=O)CSCc2cccnc2)c1 | -2.67%
5 | Cc1ccc(-n2ncc(C(=O)NC3CCCCC3)c2N)cc1 | -2.62%
6 | O=C(NCCc1ccccc1)N1CCC(C2OCCO2)CC1 | -4.29%
7 | CN(C)C(=O)CNS(=O)(=O)c1cc(Br)ccc1F | 2.64%
8 | CC(O)CNC(=O)NCCCN1CCN(c2ncccn2)CC1 (stereo not drawn) | -6.22%
9 | O=C(c1ccncn1)N1CCC[C@]2(C[C@@H](OCc3ccccn3)CO2)C1 | 10.5%
10 | Cc1cc(C(=O)N2CCn3cc(CN4CCCC4)nc3C2)no1 | -13.3%
11 | O=C(c1cccc(F)c1)N1CC[C@@H]2CN(c3ncccn3)CCO[C@@H]2C1 | -15.1%
12 | O=C(c1cscn1)N1CCc2ncc(CN3CCOCC3)n2CC1 | -15.7%
13 | CN(C)Cc1cnc2n1CCN(C(=O)C1CC=CC1)CC2 | -12.7%
14 | O=C(C1CCOCC1)N1CCc2ncc(CN3CCCCC3)n2CC1 | -10.2%
15 | Cc1ccccc1C(=O)N1CC[C@@H]2CN(c3ncccn3)CCO[C@@H]2C1 | -10.9%
16 | O=C([C@H]1CCCO1)N1CCc2ncc(CN3CCOCC3)n2CC1 | -11.9%
17 | O=C(Cc1ccc(F)cc1)N1CCn2cc(Cn3cncn3)nc2C1 | -9.64%
18 | COc1cccc(CNC(=O)c2nc3c(s2)CCN(C(C)=O)CC3)c1 | -11%
19 | Cn1cc(C2COC3(CCN(C(=O)c4ccsc4)CC3)C2)cn1 (stereo not drawn) | -15.9%
20 | CS(=O)(=O)NCc1nnc2n1CCN(Cc1cccnc1)C2 | 18.3%
21 | Cc1nc(C(=O)N2CC[C@@]3(C[C@@H](NS(C)(=O)=O)CCO3)C2)cs1 | -5.85%
22 | CN1C[C@H]2C[C@H](C(=O)Nc3cccnc3)[C@@H](C1)O2 | -11.1%

Row | SMILES | cytotoxicity at 70.5 h
23 | c1cncc(CN2CCCC3(COCCN(c4cncnc4)C3)C2)c1 (stereo not drawn) | -6.01%
24 | O=C(c1ccncc1)N1C[C@@H]2OCCN(CCN3CCCC3)[C@@H]2C1 | -4.2%
25 | Cc1ncoc1C(=O)N1CC[C@@]2(C[C@H](NS(C)(=O)=O)CCO2)C1 | -7.59%
26 | Cc1cc(C(=O)N2CC[C@@]3(C[C@@H](NS(C)(=O)=O)CCO3)C2)no1 | -4.95%
27 | O=S(=O)(c1ccccc1)N1CCC2(CCCN2Cc2cccc(F)c2)C1 (stereo not drawn) | 6.89%
28 | CC1=N[C@@]2(CC[C@@H]3CN(S(=O)(=O)CC(C)C)C[C@@H]32)C(=O)N1CC1CC1 | 8.18%
29 | CS(=O)(=O)N[C@@H]1CCN(Cc2ccncc2)[C@H]1Cc1cccnc1 | -12.8%
30 | CS(=O)(=O)N[C@@H]1CCN(Cc2cccs2)[C@H]1Cc1cccnc1 | -18.1%
31 | COCC(=O)N1CC[C@H]2C[C@H](c3nc(C)no3)O[C@@H]2C1 | -7.44%
32 | Cn1cc2c(n1)C(COCC1CC1)CN(Cc1ccsc1)C2 (stereo not drawn) | -3.4%
33 | CC(C)N(C)Cc1cnc2n1CCN(C(=O)c1cccs1)C2 | -15.9%
34 | Cc1nc(CN2Cc3cn(C)nc3C(COCC3CC3)C2)cs1 (stereo not drawn) | 14.1%
35 | CN1CCN(Cc2cnc3n2CCN(C(=O)N2CCCC2)C3)CC1 | -14.4%
36 | CCCNC(=O)c1nc2c(o1)CN(C(C)=O)C2 | -9.4%
37 | Cn1ccc(C(=O)NC2CCC23CCN(C(=O)c2ccnnc2)CC3)c1 (stereo not drawn) | 27.1%
38 | CCc1nc2c(N3CCC4(CC3)CC(=O)N(CC)C4)ncnc2o1 | -1.14%
39 | CN(CCO)Cc1nnc(C2CCN(CC(C)(C)C)CC2)n1C | -4.91%
40 | CN(Cc1ccc(-n2ccnc2)cc1)Cc1ncc[nH]1 | -6.87%
41 | CC(=O)N[C@@H]1CN(S(=O)(=O)Cc2ccccc2)C[C@H]1C(C)C | -0.553%
42 | CCCc1cc(CNc2cc(CCC)nc3ccnn23)on1 | 13.7%
43 | O=C(c1ccc(-n2cnnc2)cc1Cl)N1CCCC(O)(CO)CC1 (stereo not drawn) | 15.6%
44 | Cc1cnc(C)c(Oc2ccc(CN3CCCC3)cc2Cl)n1 | -4.06%

Row | SMILES | cytotoxicity at 70.5 h
45 | CN1CCCCC1c1nc(Cc2cccc(F)c2)no1 (stereo not drawn) | -7.67%
46 | CC(=O)c1ccccc1NC(=O)CCN1CCSCC1 | 6.67%
47 | OCC1(O)CCN(Cc2noc(-c3ccccc3)n2)CC1 | -6.37%
48 | c1ccc(Cc2noc(CCNC3CCOC4(CCOCC4)C3)n2)cc1 (stereo not drawn) | 11.9%
49 | Cc1cnc(C)c(N2CCCC(CC3CC3)(C(=O)O)C2)n1 (stereo not drawn) | -4.19%
50 | C1CCC(c2nc3c(c(N4CCN5CCCC5C4)n2)CCNCC3)C1 (stereo not drawn) | -5.97%
51 | CCN(CC)c1ncccc1CNCc1cc2ccccc2s1 | -2.63%
52 | CCCc1ccc(CN2CCN(C(=O)CC(C)C)[C@@H]3CS(=O)(=O)C[C@@H]32)o1 | -9.85%
53 | COC(C)(C)C(=O)N1Cc2cnc(C(C)(C)C)nc2C1 | -13.3%
54 | Cc1ccc(N2CCC(c3cc(Cc4ccccc4)n[nH]3)CC2)nn1 | -9.6%
55 | Cc1cnc(NC(=O)c2cccc(CN(C)Cc3ncccc3C)c2)s1 | 8.51%
56 | CC(=O)Nc1ccc2nc(CN(C)Cc3noc(C)n3)ccc2c1 | -4.56%
57 | Cc1nonc1-c1nc(C(C)C)nn1-c1ccc2c(c1)OCO2 | -3.15%
58 | CCN1CC2(CCN(C(=O)c3nc4cc(C)ccn4c3F)CC2)CC1=O | 24.7%
59 | CC(Nc1nc(-c2ccccc2)nc2c1CCNCC2)c1cccnc1 (stereo not drawn) | 2.48%
60 | CSCC(=O)N(C)Cc1cnn(-c2ccc(F)cc2)c1 | 3.1%
61 | CS(=O)(=O)N1CCC2(CC1)c1ccccc1[C@@H](N1CCSCC1)[C@@H]2O | -0.762%
62 | O=C(NCCn1cccc1)C(c1cccnc1)N1CCCC1 (stereo not drawn) | -0.962%
63 | N#Cc1cccc(N2CCC(CO)(CCc3ccccc3)CC2)n1 | -5.51%
64 | CCCOCCNc1nc2c(s1)c(C)nn2C | 24.8%
65 | O=C1CC[C@H]2CN(c3ncccc3F)CC[C@H]2N1CCc1ccccc1 | 17.3%
66 | CN(Cc1cc[nH]n1)C(=O)C1CC(=O)N(Cc2ccncc2)C1 (stereo not drawn) | -0.62%

Row | SMILES | cytotoxicity at 70.5 h
67 | CCC(=O)Nc1cccc(OCC(=O)N2C[C@H]3CC[C@H]2C3)c1 | -18.9%
68 | COCCN(C)Cc1cn(C)nc1-c1ccc2c(c1)OCCO2 | -7.93%
69 | Cc1ncc(CN(C)C2CCCN(CCc3ccccc3)C2)n1C (stereo not drawn) | -9.12%
70 | COc1cccc(CN2CC(=O)N(c3ccccc3C)CC2C)c1OC (stereo not drawn) | -6.78%
71 | O=C(CSC(F)(F)F)N1CCC2(CCCN(C3CCOCC3)C2=O)C1 (stereo not drawn) | 15%
72 | CCc1ccc(CN2CCCC(c3nn(C)c(=O)n3CC)C2)nc1 (stereo not drawn) | -9.19%
73 | CN(Cc1ccon1)C(=O)CN1C(=O)OC(C)(C)C1=O | -11.5%
74 | CC(C)N1CCC(C(=O)NC[C@H]2CCc3ccccc3O2)CC1 | -17.4%
75 | Cc1nc2ccccn2c1CN1C[C@@H](CN(C)CCO)[C@@H](CO)C1 | 5.92%
76 | CC(C)(C)c1cc(CN2C[C@@H]3CC[C@H](C2)N(Cc2ccccn2)C3)n[nH]1 | -9.78%
77 | O=C(NCc1ccco1)[C@H]1COC[C@H]2CN(Cc3ccoc3)C[C@H]21 | 13.6%
78 | O=C(CC1CCCC1)N1CCn2cc(Cn3cccn3)nc2C1 | -11.5%
79 | c1ccc(CN2CCC3(CC2)CC(Nc2nccs2)CO3)nc1 (stereo not drawn) | -8.19%
80 | O=C(CC1CC1)N1CCn2cc(Cn3cccn3)nc2C1 | -15.8%
81 | O=C([C@@H]1CCO[C@@H]2CCN(Cc3ccsc3)C[C@@H]21)N1CCCC1 | -16.1%
82 | O=C(Cc1cccc(F)c1)N1CCn2cc(Cn3cccn3)nc2C1 | -10.7%
83 | O=C(C1CCOCC1)N1CCc2ncc(CN3CCCC3)n2CC1 | -13.2%
84 | CNC(=O)[C@@H]1CCO[C@@H]2CCN(Cc3ccsc3)C[C@H]21 | -14%
85 | O=C(Nc1cnccn1)[C@@H]1CCO[C@@H]2CCN(Cc3ccsc3)C[C@@H]21 | -9.48%
86 | Cc1noc(C)c1C(=O)N1CC[C@]2(C[C@@H](OCc3cccnc3)CO2)C1 | -9.24%
87 | Cn1cc(CN2CC[C@H](O)[C@@H]2Cc2ccccc2)cn1 | -0.0718%
88 | Cc1ccc(CN2CC[C@@H](O)[C@@H]2Cc2cnn(C)c2)o1 | -10.4%

Row | SMILES | cytotoxicity at 70.5 h
89 | Cc1cc(C(=O)N2C[C@@H]3OCCN(CCN4CCCC4)[C@@H]3C2)c(C)o1 | -7.77%
90 | CCN1C[C@H]2C[C@H](C(=O)Nc3ccccc3)[C@@H](C1)O2 | 16.4%
91 | O=C(c1cc[nH]n1)N1CCc2onc(COc3cccnc3)c2C1 | -6.72%
92 | CC(C)(C)CN1CCCC12CCN(S(=O)(=O)c1ccccc1)C2 (stereo not drawn) | -2.83%
93 | CN1C(=O)C2(CCN(CC3CCC3)C2)c2ccccc21 (stereo not drawn) | 9.83%
94 | O=C(NCc1ccccc1)c1nc2c(o1)CN(C(=O)c1cccnc1)C2 | -9%
95 | Cn1ccnc1CN1CC[C@@H](NS(C)(=O)=O)[C@@H]1Cc1ccccc1 | -10.6%
96 | CCC(CC)NC(=O)c1ncn2c1CN(CC)S(=O)(=O)c1ccccc1-2 | -12.8%
97 | CC(C)CN1C(=O)C2(CCN(CC3CCOCC3)C2)c2ccccc21 (stereo not drawn) | -3.07%
98 | CC(C)CS(=O)(=O)N1CCC2(CN(c3cccc(F)c3)C(=O)CN2C)C1 (stereo not drawn) | 19.6%
99 | CC(C)OCc1ncn2c1CN(CC1CC1)CCC2 | 20.2%
100 | CCOc1ncnc2c1CCN(Cc1csc(C)n1)CC2 | 18.8%
101 | Cc1nc(CN2CCCn3cnc(COC(C)C)c3C2)cs1 | -2.95%
102 | CNC(=O)C1Cn2ccnc2C2(CCN(Cc3nccs3)CC2)O1 (stereo not drawn) | 10.7%
103 | CC(C)NC(=O)[C@H]1C[C@H]2OCC[C@H]2N(Cc2ccc3ccccc3n2)C1 | -0.387%
104 | O=C(c1ccsc1)N1C[C@@H]2OCCN(CCN3CCCC3)[C@@H]2C1 | 16.6%
105 | Cn1cc(CN2CC[C@@H](NS(C)(=O)=O)[C@@H]2Cc2cccnc2)cn1 | -12.3%
106 | COCC(=O)N1CCn2c(CN3CCN(C)CC3)cnc2C1 | -3.31%
107 | Cc1nc(CN2CCc3ncnc(-c4ccncc4)c3CC2)cs1 | 20%
108 | CN(C)c1ccc(CNC2=NCCCN2)cc1 | 13.3%
